From patent US7632830B2, “Lactam compounds and pharmaceutical use thereof” (Ajinomoto Co., Inc., priority 2000, dated 2009)
Values after ≈ are worked out from the molar mass of the structure shown.

system: adipose cells of rats; experiment: Evaluation of the sugar-transporting activity (2-[14C(U)]-deoxy-D-glucose incorporation); assay type: cell-based; conditions: concentration having a reinforcing effect corresponding to 50% of the reinforcing effect of insulin (100%); rat adipose cells
Experimental: After the decapitation and venesection of 6 male Wistar rats (body weight: 150 to 200 g), an incision was made in the abdomen of each rat to extract 6 g in total of epididymal adipose tissues. The tissues were finely cut into 2 mm×2 mm pieces in 6 ml of KRH (Krebs-Ringer Hepes, composition: 130 mM of sodium chloride, 4.7 mM of potassium chloride, 1.2 mM of potassium dihydrogenphosphate, 1.2 mM of magnesium sulfate, 1 mM of calcium chloride and 25 mM of Hepes, pH=7.6) containing 5% of BSA (bovine serum albumin). 24 mg of collagenase (type I) was added thereto and the digestion treatment was conducted for about 40 minutes to obtain about 6 ml of isolated adipose cells. The collagenase was removed by the buffer exchange. 2% BSA/KRH solution was added to the residue for the re-suspension to obtain 45 ml of an adipose cell suspension.
The sugar-transporting activity of the compounds of the present invention was evaluated with reference to a method described in a literature [Annual Review of Biochemistry, Vol. 55, p. 1059 (1986)]. In the test, 200 μl of the adipose cell suspension was poured in each polystyrene test tube, 100 μl of the solution of the test substance (by dilution of 10 mg/ml substance dimethyl sulfoxide solution with KRH) was added thereto, and the obtained mixture was shaken and then cultured at 37° C. for 30 minutes.
The sugar-transporting activity was evaluated by measuring the quantity of 2-[^14C(U)]-deoxy-D-glucose incorporated per a unit time. Namely, 2-[^14C(U)]-deoxy-D-glucose was added to the adipose cell suspension after the pre-culture (the final concentration: 0.5 μCi/sample). 5 minutes after, cytochalasin B (final concentration: 10 μM) was added to the mixture to terminate the sugar transportation. After forming a dinonyl phthalate layer, the obtained mixture was centrifuged to separate the adipose cells from the buffer. The quantity of 2-[^14C(U)]-deoxy-D-glucose contained in the adipose cell layer was determined with a liquid scintillation counter to determine the quantity of the incorporated sugar. In this evaluation system, when insulin (100 nM) having the effect of increasing the sugar transportation was used, the effect was about 7 times as high as that obtained in the insulin-free control group.
The results of the evaluation of the sugar-transporting activity obtained by using 100 μg/ml of each compound of the present invention are shown in Table 6. The sugar transporting activity in Table 6 was evaluated on the basis of the reinforcing effect of insulin (100 nM). […] The symbols in Table 6 are as follows: • No: Example No., and • A: sugar transporting activity.
The results of the evaluation of the sugar-transporting activity obtained by using each compound of the present invention are shown in Table 7. The sugar transporting activity in Table 7 was determined in terms of the concentration (EC50: μg/ml) of a test compound, having a reinforcing effect corresponding to 50% on the basis of the reinforcing effect of insulin having a reinforcing effect of 100%.

Compound | A: sugar transporting activity (EC50) | EC50
O=C1NCC2=C1[C@@H](c1ccccc1Cl)N(C(=O)CC(F)(F)F)[C@@H]1CCCC[C@H]1N2 [Example 143] | 0.5 µg/mL | 
COC(=O)CC(=O)N1[C@@H]2CCCC[C@H]2NC2=C(C(=O)NC2)[C@H]1c1ccccc1Cl [Example 146] | 2 µg/mL | 
COC(=O)N1[C@@H]2CCCC[C@H]2NC2=C(C(=O)NC2)[C@H]1c1ccccc1Cl [Example 147] | 2.4 µg/mL | 
COC(=O)N1[C@@H]2CCCC[C@H]2NC2=C(C(=O)NC2)[C@H]1c1ccccc1F [Example 151] | 2 µg/mL | 
CCC(=O)N1[C@@H]2CCCC[C@H]2NC2=C(C(=O)NC2)[C@H]1c1ccccc1 [Example 154] | 1.5 µg/mL | 
CCOCC(=O)N1[C@@H]2CCCC[C@H]2NC2=C(C(=O)NC2)[C@H]1c1ccccc1 [Example 155] | 2.7 µg/mL | 
COC(=O)N1[C@@H]2CCCC[C@H]2NC2=C(C(=O)NC2)[C@H]1c1ccccc1 [Example 156] | 2 µg/mL | 
CC(=O)N1[C@@H]2CCCC[C@H]2NC2=C(C(=O)NC2)[C@H]1c1ccccc1N [Example 158] | 12 µg/mL | 
COc1ccc([C@@H]2C3=C(CNC3=O)N[C@@H]3CCCC[C@H]3N2C(C)=O)cc1 [Example 160] | 4.4 µg/mL | 
CC(=O)N1[C@@H]2CCCC[C@H]2NC2=C(C(=O)NC2)[C@H]1c1ccc(Br)cc1 [Example 161] | 17 µg/mL | 
CCOCC(=O)N1[C@@H]2CCCC[C@H]2NC2=C(C(=O)NC2)[C@H]1c1ccc(Cl)cc1 [Example 163] | 6 µg/mL | 
CC(=O)N1[C@@H]2CCCC[C@H]2NC2=C(C(=O)NC2)[C@H]1c1ccc(Br)s1 [Example 180] |  | 19 µg/mL (≈ 46.3 µM)

Continued, values first:

A: sugar transporting activity (EC50) | EC50 | Compound
3 µg/mL |  | CCC(=O)N1[C@@H]2CCCC[C@H]2NC2=C(C(=O)NC2)[C@H]1c1ccccc1Cl [Example 141]
4 µg/mL |  | CCCC(=O)N1[C@@H]2CCCC[C@H]2NC2=C(C(=O)NC2)[C@H]1c1ccccc1Cl [Example 142]
5 µg/mL |  | COCC(=O)N1[C@@H]2CCCC[C@H]2NC2=C(C(=O)NC2)[C@H]1c1ccccc1Cl [Example 144]
10.7 µg/mL |  | CCOCC(=O)N1[C@@H]2CCCC[C@H]2NC2=C(C(=O)NC2)[C@H]1c1ccccc1Cl [Example 145]
2 µg/mL |  | CCC(=O)N1[C@@H]2CCCC[C@H]2NC2=C(C(=O)NC2)[C@H]1c1ccccc1F [Example 149]
2 µg/mL |  | CCOCC(=O)N1[C@@H]2CCCC[C@H]2NC2=C(C(=O)NC2)[C@H]1c1ccccc1F [Example 150]
2 µg/mL |  | CSc1ccccc1[C@@H]1C2=C(CNC2=O)N[C@@H]2CCCC[C@H]2N1C(=O)CO [Example 164]
0.064 µg/mL |  | COc1ccccc1[C@@H]1C2=C(CNC2=O)N[C@@H]2CCCC[C@H]2N1C(=O)CCc1ncco1 [Example 166]
0.10 µg/mL |  | CCOc1ccccc1[C@@H]1C2=C(CNC2=O)N[C@@H]2CCCC[C@H]2N1C(=O)CCc1ncco1 [Example 167]
0.070 µg/mL |  | CSc1ccccc1[C@@H]1C2=C(CNC2=O)N[C@@H]2CCCC[C@H]2N1C(=O)CCc1ncco1 [Example 168]
0.070 µg/mL |  | O=C1NCC2=C1[C@@H](c1ccccc1OC(F)(F)F)N(C(=O)CCc1nccs1)[C@@H]1CCCC[C@H]1N2 [Example 171]
0.060 µg/mL |  | CCOc1ccccc1[C@@H]1C2=C(CNC2=O)N[C@@H]2CCCC[C@H]2N1C(=O)CCc1nccs1 [Example 172]
0.060 µg/mL |  | CSc1ccccc1[C@@H]1C2=C(CNC2=O)N[C@@H]2CCCC[C@H]2N1C(=O)CCc1nccs1 [Example 173]
0.050 µg/mL |  | COc1ccccc1[C@@H]1C2=C(CNC2=O)N[C@@H]2CCCC[C@H]2N1C(=O)CCc1ncc(C)s1 [Example 174]
0.020 µg/mL |  | Cc1ccccc1[C@@H]1C2=C(CNC2=O)N[C@@H]2CCCC[C@H]2N1C(=O)CCc1ccccn1 [Example 175]
0.021 µg/mL |  | COc1ccccc1[C@@H]1C2=C(CNC2=O)N[C@@H]2CCCC[C@H]2N1C(=O)CCc1ccccn1 [Example 176]
0.10 µg/mL |  | COc1ccccc1[C@@H]1C2=C(CNC2=O)N[C@@H]2CCCC[C@H]2N1C(=O)CCc1ncccn1 [Example 177]

same assay, conditions: insulin 100 nM; rat adipose cells

Compound | effect of increasing the sugar transportation relative to insulin-free control group
insulin: insulin (100 nM) having the effect of increasing the sugar transportation; reference for the reinforcing effect [reference compound] | about 7 times
